# Measured values published in US20050074765A1, “Methods for identifying and using modulators of estrogen related receptor gamma” (priority 2002, published 2005).
# Legend:
# [1] = molecular target: T1, ERRγ (Homo sapiens, UniProt P62508); assay: ERRγ direct binding assay ([3H]-tamoxifen competition, SPA); conditions: found using FRET assay and direct binding assay in conjunction with the homology model
# T1 construct: made in house; host or cells: E. coli BL21(DE3), pRSETa vector
# T1 sequence (P62508 with tags, fused parts or gaps): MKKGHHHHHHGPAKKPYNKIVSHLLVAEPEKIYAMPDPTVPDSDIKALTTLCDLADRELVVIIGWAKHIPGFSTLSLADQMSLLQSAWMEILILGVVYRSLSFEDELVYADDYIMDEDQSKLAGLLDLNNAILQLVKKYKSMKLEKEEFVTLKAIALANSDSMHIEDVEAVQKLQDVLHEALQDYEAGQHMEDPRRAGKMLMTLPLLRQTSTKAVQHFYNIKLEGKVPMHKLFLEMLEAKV
# Excerpt: The binding assay was developed with a different set of parameters than that of the LiSA assay. No common set of assay conditions is applicable to all nuclear receptors. Accordingly, parameters to be optimized included pH, detergents, carriers, and bead concentrations. By […] several variables at one time, a large number of conditions can be examined through the statistical capabilities of a program called JMP (SAS Institute, Cary N.C.). Multiple variables including, but not limited to, buffer, detergents, and carrier, were entered simultaneously Lnto the program with the goal being to increase specific counts while lowering non-specific counts.
# The same ERRγ protein as set forth in Example 4 was used to develop the binding assay. The buffer for this system was prepared with 50 mM MOPS (pH 7), 50 mM KCl, and 1 mM EDTA, in 1 L of deionized water. This buffer was then filtered with the Corning (431205) filter system with a 0.22 μm cellulose Acetate filter. After filtering, 0.01% Tween20 was added. Before using the buffer in the assay, 10 mM DTT was added to the appropriate amount of buffer. Approximately 0.125 mg/ml SA-SPA beads (Wallac) were coated with 20 nM biotinylated ERRγ. […] These plates were then read on the Wallac Trilux scintillation counter.
# [2] = molecular target: T2, ERRγ:RIP140 complex (Homo sapiens, UniProt P62508); assay: ERRγ:RIP140 FRET ligand sensing assay (LiSA); assay type: biochemical; conditions: ERRγ LBD and RIP140 peptide, one to one ratio
# T2 construct: made in house; host or cells: E. coli BL21(DE3), pRSETa vector; RIP140 peptide synthesised by SynPep
# T2 sequence (P62508 with tags, fused parts or gaps): T1 sequence (P62508 with tags, fused parts or gaps)
# Method: Before using the buffer in the assay, 10 mM DTT was added to the appropriate amount of buffer.
ligand for ERRγ [1],dissociation of the receptor:cofactor interaction [2],Molecule
ligands for ERPγ,,CC/C(=C(/c1ccc(OCCN(C)C)cc1)c1cccc(O)c1)c1ccccc1 [3-hydroxytamoxifen]
ligands for ERPγ,caused this dissociation,4-hydroxytamoxifen
